Series [1] deals with T1, glycine/NMDA receptor (Rattus norvegicus, UniProt P35439).
T1 construct: expressed in transfected cells; host or cells: Xenopus oocytes (RNA injected)
The experiment in a line: electrophysiology using Xenopus oocytes. It counts as cell-based. The settings on record: from electrophysiology using Xenopus oocytes unless otherwise noted; read-out: Ki.

Series [2] concerns the target T2, glycine binding site of the NMDA receptor (Rattus norvegicus, UniProt P35439).
T2 construct: rat brain membrane homogenates which are enriched in NMDA receptors; tissue Pel-Freez, Rogers, Ark; host or cells: whole rat brain, washed membrane homogenate
In words: 1 μM glycine-stimulated [3H]-MK-801 binding, rat brain membrane homogenates. The settings on record: rat brain homogenates, [3H]-MK-801 binding, 1 μM glycine; read-out: IC50. The procedure:
^a Experiments described herein utilizing rat brain homogenates and a
The assay is conducted using rat brain membrane homogenates which are enriched in NMDA receptors. The membranes are prepared as follows. Frozen rat brains (obtained from Pel-Freez, Rogers, Ark.) are homogenized in 15 volumes (w/v) of ice cold 0.32M sucrose. The homogenate is spun at 1,000×g for ten minutes. The supernatant is collected and spun for 20 minutes at 44,000×g. The pellet is suspended in 15 volumes of water (relative to original brain weight). The homogenate is again spun at 44,000×g for twenty minutes. The pellet is resuspended in 5 volumes of water and the suspension is freeze-thawed 2 times. After the final thaw cycle, the suspension is brought to 15 volumes with water and spun at 44,000×g for twenty minutes. The pellet is resuspended in 5 volumes of ice-cold 10 mM HEPES, and is titrated to pH 7.4 with KOH containing 0.04% Triton X-100. Membranes are incubated with the Triton/HEPES buffer at 37° C. for 15 minutes. The volume is then brought to 15 with ice-cold 10 mM HEPES, pH 7.4, and spun/washed three times with spins of 44,000×g between washes. The final pellet is suspended in three volumes of 50 mM HEPES, pH 7.4 and the protein concentration is determined with a standard dye-binding protein assay (Bio-Rad, Richmond, Calif.). The suspension is stored at -80° C. until used. Only HPLC grade water is used for all buffers and suspensions/washings. The extensive washings are necessary to remove as much endogenous glycine from the membrane preparation as possible.
Nonspecific binding is defined as the […] presence of PCP (final concentration: 100 μM). […] A 500 nM concentration (final) of 5,7-dichlorokynurenic (DCK) acid is added to all assay tubes. This concentration of the glycine antagonist DCK "buffers" most of the residual endogenous glycine that is not removed by the extensive washing steps that are carried out during the membrane preparation procedure.
The assays are incubated for 120 minutes at room temperature after which time the membrane-bound radioactivity is isolated from the free radioactivity by vacuum filtration through Whatman glass fiber filters that had been pretreated with 0.3% polyethyleneimine. Filtration is accomplished using a Brandel 48 well cell harvester. Filtered membranes are washed three times with 3 mL each of ice cold buffer. Filters are transferred to scintillation vials and 5 mL of scintillation cocktail is added. The vials are shaken overnight and the radioactivity is counted by liquid scintillation spectroscopy. The assays are done in triplicate and all experiments are conducted at least three times.
Inhibition dose response curves are constructed using increasing concentrations of glycine antagonists from 5 nM to 330 μM.
After constructing inhibition dose response curves and determination of glycine reversibility, Ki values for the glycine antagonists are calculated using the Cheng and Prusoff equation employing the experimentally determined IC50 values, the known concentration of glycine in the assay (1 μM) and the known affinity of glycine for the glycine binding site of the NMDA receptor (100 nM).
Binding Assays and In Vivo Studies.

For series [3], the system named is male Swiss/Webster mice. In words: maximum electroshock-induced seizure (MES) assay. It counts as in vivo, mouse. The settings on record: Mus musculus, iv; anticonvulsant, MES in mice. On the procedure:
The anticonvulsant activity of the glycine antagonists may be assessed in the maximum electroshock-induced seizure (MES) assay in mice. […] The seizure stimulus parameters are 50 mA, 60 Hz, rectangular pulse, width 0.8 msec, duration 200 msec. Tonic hind limb extension observed after application of the electrical stimulus is recorded as occurrence of seizure.

A short description of series [4]: crossing of the blood/brain barrier. The settings on record: inferred from Ki and MES ED50.
Series [5] deals with PCP receptor. The settings on record: Wong et al. 1986; cited from earlier work.
Series [6] concerns rodents. The settings on record: literature; cited from earlier work.
In series [7] the test system is neurons in brain ischemia. The settings on record: literature; cited from earlier work.
Series [8] has as its system pigeons. The settings on record: literature; cited from earlier work.

With `O=c1cc(O)c(=O)[nH]c2c1CCCC2` [Compound 61, 3-Hydroxy-6,7,8,9-tetrahydro-1H-1-benzazepine-2,5-dione], in series [1], the Ki was found to be 1650 nM. Further, the 50% inhibitory concentration (IC50) in series [2] came out at 34000 nM. For the same molecule, the median effective dose (ED50) in series [3] came out at 8 mg/kg. Moreover, the “crossing the blood-brain-barrier, relative to 6,7-dichloro-5-nitro-1,4-dihydroquinoxaline-2,3-dione” value in series [4] is reported as “about 100 times”.

For the molecule `C[C@]12N[C@H](Cc3ccccc31)c1ccccc12` [MK-801], the Kd in series [5] was around 3 nM. In addition, the “PCP-like behavioral effects, in words” value in series [6] is reported as “adverse PCP-like behavioral side effects”.

Consider `c1ccc(C2(N3CCCCC3)CCCCC2)cc1` [PCP, phencyclidine], for which the “PCP-like behavioral effects, in words” value in series [6] is listed as “behavioral excitation (hyperlocomotion)”. Moreover, the “neuroprotective efficacy, in words” value in series [7] is “neuroprotective efficacy both in vitro and in vivo”. The “katalepsy, in words” value in series [8] is recorded as “characteristic katalepsy in pigeons”.

Source of the values: patent publication US5476933A, “Azepine synthesis via a diels-alder reaction” (priority 1994, dated 1995).
